Several values for one entry are separate records, joined by “and”; a condition that tells them apart may be missing. Equal values may be shown once.
Key:
[1] = biological target: T1, affinity-purified PLA2 enzyme isolated from synovial fluid of rheumatoid arthritis patients (Homo sapiens, UniProt P14555); assay: PLA2 assay, [3H]-oleic acid-E. coli, affinity-purified enzyme; type: biochemical; conditions: mean of three determinations
T1 construct: from tissue
T1 sequence (P14555 21-144): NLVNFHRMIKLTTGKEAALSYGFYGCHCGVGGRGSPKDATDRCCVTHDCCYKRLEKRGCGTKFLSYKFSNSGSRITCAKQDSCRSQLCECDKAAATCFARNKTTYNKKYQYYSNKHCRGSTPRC
Description: (§1) The procedure is a modification of that described by Elsbach and Weiss (1991). E. coli strain SJ198 was grown in 10 ml M9 minimal medium plus 50 μl glycerol, 100 μl vitamin mix, 40 μl methionine (25 mg/ml), 50 μl [^3H]-oleic acid (0.1 μCi/μl), and 100 μl casamino acids (100 mg/ml). After incubation at 37° C. overnight, the culture was centrifuged and washed three times in PBS, autoclaved for 15 minutes, washed again three times in PBS and stored at −70° C. The reaction mixture contained 10 μl of 5×assay of the PLA2 enzyme preparation, 10 μl of [^3H]-oleic acid-labeled E. coli cells, and enough H2O to adjust the total volume to 50 μl. The reaction mixture was incubated for 15 minutes at 37° C. in a waterbath. To stop the reaction, the tubes were transferred immediately to an ice bath and an equal volume of either 1 M HCl or 4 volumes cold PBS was added. After centrifugation in a microfuge at 4° C. for 10 minutes, an aliquot equal to 25% of the volume of the supernatant was used to measure the amount of [^3H]-labeled oleic acid released from the E. coli cells by PLA2 using liquid scintillation counting.

phospholipase D (PLD) = assay: Synthetic melittin added to dissociated membranes from U-937 cells; type: biochemical; conditions: dissociated membranes from human monocyte cell line U-937
[2] = test system: PLA2 from synovial fluid from rheumatoid arthritis patients; assay: PLA2 assay using [3H]-oleic acid labeled E. coli; type: biochemical, human; conditions: Synovial F., peptide 1 μg
Description: (§2) PLA2 activity may also be assayed using [^3H]-oleic acid labeled Escherichia coli, in a modification of the procedure previously described by [Elsbach and Weiss, 1991]. E. coli cells grown in the presence of [^3H]-oleic acid are incubated with PLA2 enzyme. The reaction is quenched either by addition of 1M HCl or by dilution in cold phosphate buffered saline (PBS). The amount of [^3H]-oleic acid released from the E. coli cells by PLA2 is measured using scintillation counting.
as §1, with “After centrifugation in a microfuge at 4° C. for 10 minutes, an aliquot equal to 25% of the volume of the supernatant was used to measure the amount of [^3H]-labeled oleic acid released from the E. coli cells by PLA2 using liquid scintillation counting.” left out

PLA2 from bee venom [3] = biological target: T2, PLA2 from bee venom (Apis mellifera, UniProt P00630); type: biochemical
[4] = biological target: T3, PLA2 from bovine pancreas (Bos taurus, UniProt P00593); assay: PLA2 assay using [3H]-oleic acid labeled E. coli; type: biochemical; conditions: Bovine P., peptide 1 μg
T3 sequence (P00593 23-145): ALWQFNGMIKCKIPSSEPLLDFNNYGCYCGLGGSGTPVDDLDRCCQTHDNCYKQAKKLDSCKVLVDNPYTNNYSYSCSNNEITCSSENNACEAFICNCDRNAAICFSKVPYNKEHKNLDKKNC
Description: as §2, §1

PLA2 from snake venom [5] = assay: PLA2 assay using [3H]-oleic acid labeled E. coli; type: biochemical; conditions: Snake V., peptide 1 μg
Description: as §2, §1

PLA2 from bee venom [6] = biological target: T2, PLA2 from bee venom; assay: biochemical; type: biochemical
[7] = test system: PLA2 from synovial fluid from rheumatoid arthritis patients; assay: PLA2 assay using unsonicated vesicles; type: biochemical, human; conditions: Synovial F., peptide 1 μg
Description: (§3) In general, assays involve incubation of purified PLA2 or a mixture believed to contain PLA2, such as synovial fluid, with a PLA2 substrate containing radio-labeled arachidonic acid in the presence of the inhibitor of interest. Suitable substrates for PLA2 reactions include any glycerol-3-phosphate with arachidonic acid substituted at the sn-2 position. The preferred substrates of the assays of this invention include [^14C]-arachidonic acid-substituted phosphatidylcholine or [^14C]-arachidonic acid-substituted phosphatidylethanolamine. After the reaction is stopped by addition of chloroform and methanol, TLC chromatography is used to separate the released [^14C] arachidonic acid from [^14C] arachidonic acid-labeled phosphatidylcholine/ethanolamine, which may be quantified by scintillation counting.
Radiolabeled phosphatidylcholine or phosphatidylethanolamine containing [^14C]-arachidonic acid in the sn-2 position of the phospholipid was dried under nitrogen and the lipid vesicles were prepared in 0.05% Triton X-100. […] The silica gel region corresponding to arachidonic acid was scraped and transferred to scintillation vials containing 10 ml of scintillation cocktail, which is commercially available and designed to measure the amount of radioactivity in aqueous samples when used with a liquid scintillation counter. […]

[8] = biological target: T3, PLA2 from bovine pancreas; assay: PLA2 assay using unsonicated vesicles; type: biochemical; conditions: Bovine P., peptide 1 μg
Description: as §3
(§4) Radiolabeled phosphatidylcholine or phosphatidylethanolamine containing [^14C]-arachidonic acid in the sn-2 position of the phospholipid was dried under nitrogen and the lipid vesicles were prepared in 0.05% Triton X-100. The reaction mixture contained 10 μl of phospholipid substrate, 10 μl of 5× assay buffer (500 mM Tris[hydroxymethyl]aminomethane […]HCl (Tris HCl), pH 8.0; 500 mM NaCl; 5.0% fatty acid-free bovine serum albumin (BSA); and 5 mM CaCl2), 10 μl PLA2 enzyme preparation, and sufficient H2O to adjust the total volume to 50 μl The reaction mixture was incubated for 30 minutes at 37° C. in a waterbath and stopped by the addition of 50 μl of chloroform and methanol (1:3), containing 200 μg/ml of unlabeled arachidonic acid and then the mixture was vortexed Lipid was extracted by adding 50 μl of chloroform and 50 μl of 4M KCl, after which, the mixture was vortexed and centrifuged in a microfuge at 14,000 rpm for 10 minutes A 25 μl aliquot of the organic phase was spotted onto glass silica gel plates (Whatman LK6DF) and placed in a thin layer chromatography chamber with a solvent system containing petroleum ether, diethyl ether, and acetic acid (5:25:1) for 30 minutes. The lipid spots were made visible by placing the silica gel plates in a chamber containing iodine vapor. The silica gel region corresponding to arachidonic acid was scraped and transferred to scintillation vials containing 10 ml of scintillation cocktail, which is commercially available and designed to measure the amount of radioactivity in aqueous samples when used with a liquid scintillation counter. The amount of radionuclide corresponding to [^14C]-arachidonic acid in each vial was determined in a Beckman liquid scintillation counter. Results of these assays are shown in Tables 1 and 2 listed after Example 3.

PLA2 from snake venom [9] = assay: PLA2 assay using unsonicated vesicles; type: biochemical; conditions: Snake V., peptide 1 μg
Description: as §3, §4

[10] = biological target: T1, affinity-purified PLA2 enzyme isolated from synovial fluid of rheumatoid arthritis patients; assay: PLA2 assay, unsonicated vesicles labeled with [14C]-phosphatidylcholine, affinity-purified enzyme; type: biochemical
Description: as §4

Human serum PLA2 = assay: PLA2 assay of human serum fractions eluted from MLT-Sepharose column, [3H]-oleic acid-labeled E. coli substrate; type: biochemical; conditions: for PLA2 activity: Melittin 5 μM
Description: as §1
Isolation of PLA2 from human serum: 10 ml of heat-inactivated human serum Gemini Bio Product Inc. (Calabasas, Calif.) was diluted 1:10 with PBS and loaded onto Melittin-Sepharose as well as PLAP-Sepharose columns pre-equilibrated with PBS. Columns were washed with 500 ml of PBS overnight and eluted with 0.5M glycine/HCl buffer, pH 2.8 and 2 ml fractions were collected, neutralized to pH 7.2 with Tris-HCl buffer and analyzed for PLA2 activity using [^3H]labeled oleic acid—E. coli cells as substrate. Eluted fractions were concentrated and dialyzed in centricon 10 (Amicon, Inc., Beverly, Mass.) and the pass through was discarded. The retentate was again passed through centricon 30 and concentrated to about ⅕th of the volume. Both retentate and pass through were subjected to PLA2, assay with and without melittin.

synovial fluid PLA2 = assay: Interference of streptavidin-peroxidase binding to biotin-melittin by synovial fluid PLA2; set-up: species or system human; conditions: plate coated with biotinylated synthetic melittin, FIG. 6B
human serum PLA2 (human) [11] = biological target: human serum PLA2 (human) (UniProt P04054); assay: cell-based or functional assay
human serum PLA2 (human), sequence (P04054 23-148 limits assumed): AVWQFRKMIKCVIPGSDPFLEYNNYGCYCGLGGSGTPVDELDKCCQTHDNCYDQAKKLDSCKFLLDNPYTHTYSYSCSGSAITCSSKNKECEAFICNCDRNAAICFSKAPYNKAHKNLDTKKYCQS

[12] = biological target: PLA2 of synovial fluid from rheumatoid arthritis patients (human (rheumatoid arthritis patients)) (UniProt P14555); assay: cell-based or functional assay
human serum PLA2 (human) [13] = biological target: human serum PLA2 (human) (UniProt P04054)
[14] = biological target: T4, bee venom PLA2 (bee), P00630; assay: cell-based or functional assay
T4 chain: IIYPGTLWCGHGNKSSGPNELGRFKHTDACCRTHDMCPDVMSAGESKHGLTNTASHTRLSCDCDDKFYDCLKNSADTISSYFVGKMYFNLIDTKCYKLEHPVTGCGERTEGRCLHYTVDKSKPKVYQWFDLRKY

[15] = C: [3H]-oleic acid-labeled E. coli, stopped with cold PBS
[16] = D: [3H]-oleic acid-labeled E. coli, stopped with 1N HCl
[17] = A: [14C]-phosphatidylcholine vesicles
[18] = B: phosphatidylethanolamine vesicles

`CC[C@H](C)[C@H](NC(=O)CN)C(=O)NCC(=O)N[C@@H](C)C(=O)N[C@H](C(=O)N[C@@H](CC(C)C)C(=O)N[C@@H](CCCCN)C(=O)N[C@H](C(=O)N[C@@H](CC(C)C)C(=O)N[C@H](C(=O)N[C@H](C(=O)NCC(=O)N[C@@H](CC(C)C)C(=O)N1CCC[C@H]1C(=O)N[C@@H](C)C(=O)N[C@@H](CC(C)C)C(=O)N[C@H](C(=O)N[C@@H](CO)C(=O)N[C@@H](Cc1c[nH]c2ccccc12)C(=O)N[C@H](C(=O)N[C@@H](CCCCN)C(=O)N[C@@H](CCCNC(=N)N)C(=O)N[C@@H](CCCCN)C(=O)N[C@@H](CCCNC(=N)N)C(=O)N[C@@H](CCC(N)=O)C(=O)N[C@@H](CCC(N)=O)C(N)=O)[C@@H](C)CC)[C@@H](C)CC)[C@@H](C)O)[C@@H](C)O)C(C)C)C(C)C` [Melittin] was tested, and the “Phospholipase A2 activity C [3H]-oleic acid-E. coli” value (shortened to “Phospholipase A2 activity C”) ([1]; peptide 1.0 μM) was 0.50 ± 0.12 μ moles/min/ml, the “Phospholipase A2 activity C” value ([1]; peptide 5.0 μM) was 0.12 ± 0.02 μ moles/min/ml and the “Phospholipase A2 activity C” value ([1]; peptide 10 μM) was 0.06 ± 0.03 μ moles/min/ml. For the same molecule, the “effect on phospholipase D (PLD)” value (phospholipase D (PLD)) was “stimulates PLD”, the “effect on phospholipase D (PLD)” value (phospholipase D (PLD); listed as synthetic melittin) was “resulted in the formation of phosphatidic acid and release of arachidosic acid” and the “Phospholipase A2 activity” value [2, 15] was 5.5 ± 0.4 µmol/min/mL. For the same molecule, the “Phospholipase A2 activity” value [2, 16] was 43.65 ± 3.19 µmol/min/mL, the “type of inhibition of bee venom PLA2” value (PLA2 from bee venom [3]) was “noncompetitive inhibitor” and the “Phospholipase A2 activity” value [4, 15] was 0.06 ± 0.03 μmoles/min/mg of protein. For the same molecule, the “Phospholipase A2 activity” value [4, 16] was 1.51 ± 0.17 μmoles/min/mg of protein, the “Phospholipase A2 activity” value (PLA2 from snake venom [5]; [15]) was 61.5 ± 2.75 μmoles/min/mg of protein and the “Phospholipase A2 activity” value (PLA2 from snake venom [5]; [16]) was 59.13 ± 13.97 μmoles/min/mg of protein. The EC50 (PLA2 from bee venom [6]) was 20 nM, the “Phospholipase A2 activity” value (PLA2 from bee venom [6]) was 801 ± 55.0 μmoles/min/mg of protein and 1315.0 ± 48.2 μmoles/min/mg of protein and the “amount of synthetic melittin required to inhibit maximal PLA2 activity” value (PLA2 from bee venom [6]) was 30 mM. The “Phospholipase A2 activity” value [7, 17] was 2.9 ± 0.0 × 10^−4 μmole/min ml, the “Phospholipase A2 activity” value [7, 18] was 4.7 ± 0.0 × 10^−4 μmole/min ml and the “Phospholipase A2 activity” value [8, 17] was 3.6 ± 0.9 × 10^−5 μmoles/min/mg of protein. For the same molecule, the “Phospholipase A2 activity” value [8, 18] was 2.96 ± 0.0 × 10^−3 μmoles/min/mg of protein, the “Phospholipase A2 activity” value (PLA2 from snake venom [9]; [17]) was 1.41 ± 0.84 μmoles/min/mg of protein and the “Phospholipase A2 activity” value (PLA2 from snake venom [9]; [18]) was 0.05 ± 0.03 μmoles/min/mg of protein. The “Inhibitory Potency” value ([10]; Table 2A, follows Table 2) was 80%, the “Phospholipase A2 activity B(× 10^−3) [14C]-phosphatidylcholine” value ([10]; peptide 1.0 μM, mean of three determinations) was 0.055 ± 0.010 × 10^−3 μ moles/min/ml and the “order of inhibitory potency” value ([10]; rank order from Table 2) was “MLT>G25>G22>G141>G27>G23”. It also gave a PLA2 activity (Human serum PLA2; Human serum PLA2 eluted from MLT-Sepharose column) of 219 ± 16.3 nano mol/min/ml, a PLA2 activity (Human serum PLA2; eluate Centricon 30 concentrated (5 times)) of 192 ± 5.44 nano mol/min/ml and a PLA2 activity (Human serum PLA2; eluate Centricon 30 pass through) of 172 ± 8.73 nano mol/min/ml. For the same molecule, the “reduction in PLA2 activity in the presence of melittin” value (Human serum PLA2; fractions after concentration by centricon 10 or 30) was 4 fold.

In the case of “biotinylated synthetic melittin: biotinylated synthetic melittin used to coat microtiter plates”, the “interference of synovial fluid with streptavidin-peroxidase binding” value (synovial fluid PLA2) is reported as “dose-dependent interference”.

synthetic melittin (peptide) showed a reduction in PLA2 activity in the presence of melittin (human serum PLA2 (human) [11]) of 4 fold, an Inhibitory Potency [12] of 80% and a Purification (human serum PLA2 (human) [13]) of 1520 fold.

GIGAVLKVLTTGLPALISWIKRKRQQ (modifications not checked) [synthetic melittin] showed a molar ratio of melittin to PLA2 at maximal inhibition (mol melittin per mol PLA2) [14] of 30.

Reference: US20030166548A1, “PLAP polypeptides and methods of producing and using same” (Board of Regents, The University of Texas System, priority 1997, published 2003)
